Tested on: ASC^−/− mice
Experiment: DSS colitis in ASC-deficient mice after oral antimicrobial pretreatment
Format: in vivo
Details: oral antiviral, antifungal or antiparasitic treatment before DSS; weight loss compared (FIGS. 13C-13E)

SMILES	severity of colitis in ASC-deficient mice
C[C@@H]1[C@H](O)[C@@H](C)/C=C/C=C/C=C/C=C/C=C/C=C/C=C/[C@H](O[C@@H]2O[C@H](C)[C@@H](O)[C@H](N)[C@@H]2O)C[C@@H]2O[C@](O)(C[C@@H](O)C[C@@H](O)[C@H](O)CC[C@@H](O)C[C@@H](O)CC(=O)O[C@H]1C)C[C@H](O)[C@H]2C(=O)O [amphotericin, amphotericin B]	None of these treatments altered the severity of colitis
Nc1nc(O)c2ncn(COC(CO)CO)c2n1 [gancyclovir]	None of these treatments altered the severity of colitis

From patent US20140377278A1, “Compositions and Methods for Assessing and Treating Inflammatory Diseases and Disorders” (Yale University, priority 2012, published 2014)
